Values quoted from earlier work as cited in patent US20050239864A1, “Novel tumor-selective chemotherapeutic agents” (priority 2004, published 2005).

Tests used:
endogenous albumin = molecular target: T1, endogenous albumin (Homo sapiens, UniProt P02768); settings: human blood plasma; cited from earlier work
T1 construct: To determine the coupling rate and selectivity of Dox-MH for endogenous albumin, Dox-MH was incubated with human blood plasma; from tissue; host or cells: human blood plasma

[1] = test system: MDA-MB 435 human breast cancer; settings: cited from earlier work
[2] = test system: mouse renal RENCA, human breast cancers MDA-MB 435 and MCF-7; settings: three animal tumor models; cited from earlier work
HSA = HSA (Homo sapiens, UniProt P02768); settings: exogenously added HSA; cited from earlier work
Sequence of HSA (P02768 25-609): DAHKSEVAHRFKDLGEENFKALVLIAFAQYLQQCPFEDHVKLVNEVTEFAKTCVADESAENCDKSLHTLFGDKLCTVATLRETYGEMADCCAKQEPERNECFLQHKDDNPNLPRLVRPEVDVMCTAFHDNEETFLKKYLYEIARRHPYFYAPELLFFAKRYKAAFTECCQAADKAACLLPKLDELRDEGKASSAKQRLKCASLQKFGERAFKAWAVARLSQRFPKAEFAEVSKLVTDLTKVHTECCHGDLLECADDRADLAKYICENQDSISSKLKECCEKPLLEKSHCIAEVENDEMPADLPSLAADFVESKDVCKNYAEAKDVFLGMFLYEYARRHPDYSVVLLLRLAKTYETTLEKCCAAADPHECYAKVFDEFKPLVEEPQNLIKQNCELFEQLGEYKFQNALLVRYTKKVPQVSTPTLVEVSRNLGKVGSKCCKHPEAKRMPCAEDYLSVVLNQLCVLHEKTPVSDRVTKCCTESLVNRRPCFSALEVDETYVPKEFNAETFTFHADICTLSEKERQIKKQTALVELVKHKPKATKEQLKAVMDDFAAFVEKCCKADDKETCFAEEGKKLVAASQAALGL

T1 sequence (P02768 25-609): as above

COc1cccc2c1C(=O)c1c(O)c3c(c(O)c1C2=O)C[C@@](O)(/C(CO)=N/NC(=O)CCCCCN1C(=O)C=CC1=O)C[C@@H]3O[C@H]1C[C@H](N)[C@H](O)[C@H](C)O1 [Dox-MH]
time after which reaction with HSA was almost complete (endogenous albumin): 2 min | time by which all had reacted (endogenous albumin): ≤ 90 min | antitumor response ([1]; Dox-MH at optimal dose (3×23 mg/kg)): complete remissions were achieved | change in body weight ([1]; after 24 days of drug administration): did not produce an overall change in body weight | antitumor efficacy and toxicity versus free doxorubicin [2]: distinctly superior to free doxorubicin | time by which all had reacted with HSA (HSA): ≤ 90 min | time by which majority had reacted with HSA (HSA): ≤ 5 min
